Results on 14 compounds are retold here after US11034725B2, “Compositions and methods for treating cardiovascular disease” (Genentech, Inc., priority 2016, dated 2021).

Read-outs that look alike come from different tables or passages of the source. Bridge positions count the residues as written; N and C are the ends. Peptide text beside a SMILES is read from it. * marks the point of attachment. 5FAM = O=C1OC2(c3ccc(O)cc3Oc3cc(O)ccc32)c2ccc(C(=O)*)cc21

For assay [1], the target named is T1, PCSK9Δhelix (Homo sapiens, UniProt Q8NBP7).
T1 construct: Human PCSK9 construct M1-Q692 with an engineered TEV site (residue deletion Y166, R167); made in house; host or cells: CHO
T1 sequence (Q8NBP7 with tags, fused parts or gaps limits assumed): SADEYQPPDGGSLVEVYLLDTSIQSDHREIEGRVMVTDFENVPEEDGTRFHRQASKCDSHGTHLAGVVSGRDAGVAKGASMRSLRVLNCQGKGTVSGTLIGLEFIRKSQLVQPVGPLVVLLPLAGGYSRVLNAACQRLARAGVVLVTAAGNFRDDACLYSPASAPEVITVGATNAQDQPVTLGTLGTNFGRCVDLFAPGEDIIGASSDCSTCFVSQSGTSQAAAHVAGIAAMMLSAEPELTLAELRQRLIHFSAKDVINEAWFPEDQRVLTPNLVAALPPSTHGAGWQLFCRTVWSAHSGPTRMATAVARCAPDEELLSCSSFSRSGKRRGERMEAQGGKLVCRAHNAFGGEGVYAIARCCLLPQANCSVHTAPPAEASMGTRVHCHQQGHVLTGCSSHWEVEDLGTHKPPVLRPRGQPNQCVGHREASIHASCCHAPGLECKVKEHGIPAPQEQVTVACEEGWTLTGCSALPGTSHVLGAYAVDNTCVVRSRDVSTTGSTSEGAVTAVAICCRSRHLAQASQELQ
T1 sequence (Q8NBP7 31-152 partner limits assumed): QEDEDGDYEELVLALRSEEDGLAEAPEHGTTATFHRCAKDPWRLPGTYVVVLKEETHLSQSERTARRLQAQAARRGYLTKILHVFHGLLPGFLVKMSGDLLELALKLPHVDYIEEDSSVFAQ
In words: Surface plasmon resonance biosensor-based affinity analysis (Example 4). Conditions: Table 7, Target PCSK9Δhelix, SPR at 20° C.; read-out: Kd. It counts as binding. (In general: SPR reads the build-up and loss of mass on a sensor chip optically.)
Experimental: All assays were conducted at an analysis temperature of 20° C. Samples were held at 10° C. in the sample rack to prevent denaturation of PCSK9 proteins. A biacore T100 from GE HealthCare and a SensiQ Pioneer FE were employed. All reagents were obtained from Sigma-Aldrich unless otherwise stated. The full set of peptides was analyzed using three closely related biosensor protocols that were expected to report equivalent affinity/kinetic parameters. The need for multiple protocols was related to the aggregation potential of some peptides. The buffer composition was largely conserved other than the addition of solubilizers such as dimethylsulfoxide (DMSO), 10 kDa polyvinylpyrrolidone (PVP) and 10 kDa carboxymethylated dextran (CM dextran).
A Series S NTA sensor chip was docked in the Biacore T100 biosensor system. The system was primed into running buffer (i.e. 50 mM HEPES, 0.15 M NaCl, 0.005% T20, pH 7.5). Hexahistidine-tagged proteins (“hexahistidine” disclosed as SEQ ID NO: 297) (i.e. PCSK9 or PCSK9Δhelix) were affinity captured onto separate sensing channels where at least one sensing surface remained uncoated in order to be applied as a referencing sensing surface. Compound samples were prepared in running buffer and injected. All affinity bound complexes were then removed before reloading each protein in order to test the next sample. Each sample cycle therefore consisted of five sequential injections that were repeated for each test sample as follows.
Injected sample using high quality injection mode. […]
This method was identical to method 1 except an alternative injection mode designated as single cycle kinetics (named by the manufacturer) was employed allowing a full dilution series to be completed during each sample cycle by replacing a single compound dilution injection with five sequential injections of increasing concentration. […] All recorded binding curves were automatically double referenced and fitted with a 1:1 model using BIAevaluation analysis software from GE HealthCare. […]

For the next assay, the system named is His-EGF(A)-Fc. In words: His-EGF(A)-Fc TR-FRET counterscreen. For orientation: TR-FRET usually uses a lanthanide donor and a delayed reading to cut background.
In assay [2] the target is T1, PCSK9Δhelix. Briefly: PCSK9Δhelix/Ab20 TR-FRET binding assay. The following applies: for IC50: TR-FRET, read-out: PCSK9Δhelix/Ab20 IC50.
The target of the next assay is PCSK9 (Homo sapiens, UniProt Q8NBP7). In words: PCSK9/EGF(A) TR-FRET binding assay. The following applies: for IC50: TR-FRET, read-out: PCSK9/EGF(A) IC50.
Sequence of PCSK9 (Q8NBP7 153-692): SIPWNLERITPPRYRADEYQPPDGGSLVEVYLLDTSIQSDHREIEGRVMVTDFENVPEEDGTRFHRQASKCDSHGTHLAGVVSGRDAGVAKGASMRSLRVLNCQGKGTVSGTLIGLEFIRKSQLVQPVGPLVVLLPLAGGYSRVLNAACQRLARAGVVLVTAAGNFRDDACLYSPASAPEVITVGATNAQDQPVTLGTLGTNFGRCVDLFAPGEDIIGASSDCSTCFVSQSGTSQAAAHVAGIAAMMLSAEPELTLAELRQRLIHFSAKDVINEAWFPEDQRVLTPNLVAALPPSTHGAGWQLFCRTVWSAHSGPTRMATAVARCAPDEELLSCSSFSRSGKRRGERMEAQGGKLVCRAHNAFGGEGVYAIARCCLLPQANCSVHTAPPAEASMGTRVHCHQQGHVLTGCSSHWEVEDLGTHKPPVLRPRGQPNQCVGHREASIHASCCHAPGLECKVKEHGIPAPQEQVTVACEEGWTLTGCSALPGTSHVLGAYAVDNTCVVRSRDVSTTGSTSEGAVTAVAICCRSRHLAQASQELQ
Sequence of PCSK9 (Q8NBP7 31-152 partner limits assumed): as the sequence (Q8NBP7 31-152 partner limits assumed) above
Setting [3] is: TR-FRET counterscreen, Table 8E, additional compounds.

As to `CC[C@H](C)[C@@H]1NC(=O)[C@H](CCCNC(=N)N)NC(=O)[C@H](CCC(N)=O)NC(=O)[C@H](CC(C)C)NC(=O)[C@H](CC(N)=O)NC(=O)[C@H](Cc2c[nH]c3ccccc23)NC(=O)[C@@H]2CCCN2C(=O)[C@H]([C@@H](C)CC)NC(=O)[C@H](Cc2ccccc2)NC(=O)[C@@H](NC(=O)CNC(=O)[C@H](CO)NC(=O)CNC(=O)[C@H](CO)NC(=O)c2ccc3c(c2)C(=O)OC32c3ccc(O)cc3Oc3cc(O)ccc32)CSSC[C@@H](C(N)=O)NC(=O)[C@H](CC(C)C)NC(=O)[C@H](CC(C)C)NC(=O)CNC1=O` [Compound 33] (5FAM-SGSGCFIPWNLQRIGLLC-NH2; disulfide 5-18), at PCSK9Δhelix [1], the Kd was found to be 10 µM.
For `CC[C@H](C)[C@@H]1NC(=O)[C@H](CCCNC(=N)N)NC(=O)[C@H](CCCCN)NC(=O)[C@H](CC(C)C)NC(=O)[C@H](CC(N)=O)NC(=O)[C@H](Cc2c[nH]c3ccccc23)NC(=O)[C@H](CC(C)C)NC(=O)[C@@H](NC(=O)[C@H](Cc2ccccc2)NC(C)=O)CSSC[C@@H](C(=O)N[C@@H](Cc2c[nH]c3ccccc23)C(=O)N[C@@H](Cc2ccccc2)C(N)=O)NC(=O)[C@H](CCC(N)=O)NC(=O)[C@H](C)NC(=O)CNC1=O` [Compound 96] (Ac-FCLWNLKRIGAQCWF-NH2; disulfide 2-13 (inferred)), at PCSK9Δhelix [1], the dissociation constant Kd amounted to 2.5 µM.
For the compound Ac-DLMPWNLVRIGLL-NH2 [Compound 46], the IC50 with His-EGF(A)-Fc (counterscreen, Example 7) is > 50 µM; at PCSK9Δhelix [2] (Example 7) it was 14 µM; on PCSK9 (Example 7) it was > 50 µM.
With Ac-DLMPWNLVRIGLLA-NH2 [Compound 54], the IC50 in the assay on His-EGF(A)-Fc (counterscreen, Example 7) was > 50 µM; at PCSK9Δhelix [2] (Example 7) it was 15.4 µM; at PCSK9 (Example 7), > 50 µM.
With Ac-DLMPWNLVRIGLPR-NH2 [Compound 160], the IC50 in the assay on His-EGF(A)-Fc (setting [3]) was ≥ 50 µM; on PCSK9Δhelix [2] (Table 8E, additional compounds) it was 19 µM; on PCSK9 (Table 8E, additional compounds) it was ≥ 50 µM.
As to Ac-GGMPWNLVRIGLLR-NH2 [Compound 125], the IC50 is ≥ 50 µM in the assay with His-EGF(A)-Fc (setting [3]); 7 µM at PCSK9Δhelix [2] (Table 8E, additional compounds); ≥ 50 µM at PCSK9 (Table 8E, additional compounds).
For the compound Ac-GLMPWNLVRIGLLR-NH2 [Compound 124], the IC50 was ≥ 50 µM in the assay with His-EGF(A)-Fc (setting [3]); 3.9 µM on PCSK9Δhelix [2] (Table 8E, additional compounds); ≥ 50 µM at PCSK9 (Table 8E, additional compounds).
Take Ac-PWNLVRIGL-NH2 [Compound 119]: the IC50 with His-EGF(A)-Fc (counterscreen, Example 7) was > 50 µM; at PCSK9Δhelix [2] (Example 7) it was ≥ 49.5 µM; on PCSK9 (Example 7) it was > 50 µM.
Ac-SGDLMPWNLVRIGLLR-NH2 [Compound 122]: the IC50 with His-EGF(A)-Fc (setting [3]) is ≥ 50 µM; on PCSK9Δhelix [2] (Table 8E, additional compounds) it was 5.6 µM; at PCSK9 (Table 8E, additional compounds), ≥ 50 µM.
For the compound “Ac-TVFTSWEEYLDWVGSGGKLWNLGRV-NH2 [Compound 9]”, the IC50 in the assay with His-EGF(A)-Fc (counterscreen, Example 7) is > 50 µM; at PCSK9Δhelix [2] (Example 7), 0.065 µM; at PCSK9 (Example 7), 0.39 µM.
For “Ac-TVFTSWEEYLDWVGSGKLWN-NH2 [Compound 7]”, the IC50 with His-EGF(A)-Fc (counterscreen, Example 7) is > 50 µM; at PCSK9Δhelix [2] (Example 7), 18.6 µM; at PCSK9 (Example 7), 0.5 µM.
Regarding “Ac-TVFTSWEEYLDWVGSGKLWNLGRV-NH2 [Compound 1]”, the IC50 was > 50 µM in the assay on His-EGF(A)-Fc (counterscreen, Example 7) and 0.021 µM on PCSK9Δhelix [2] (Example 7). Also, the “inhibition in the PCSK9Δhelix/Ab20 binding assay” value on PCSK9Δhelix [2] is listed as “superior activity”. Also, the “inhibition in the PCSK9/EGF(A) binding assay” value at PCSK9 is listed as “comparable activity to Pep2-8”.
For the compound Ac-WNLVRIGL-NH2 [Compound 120], the IC50 was > 50 µM in the assay with His-EGF(A)-Fc (counterscreen, Example 7); ≥ 49.5 µM on PCSK9Δhelix [2] (Example 7); > 50 µM at PCSK9 (Example 7).
For the compound H-SGDLMPWNLVRIGLLR-OH [Compound 28], the Kd at PCSK9Δhelix [1] is 0.856 µM.

As a reminder, the Kd is the free concentration of one partner at which half of the binding sites on the other are occupied at equilibrium, for simple one-to-one binding.
